According to patent US8252748B2, “Peptide derived from neurotensin receptor 3 and use thereof in the treatment of psychiatric diseases” (Centre National de la Recherche Scientifique—CNRS, priority 2007, dated 2012):

How the values were obtained:
[1] = test system: mouse (C57Black/J); test: Conditioned motility suppression test (CMST); format: in vivo; conditions: fluoxetine 3 mg/kg; 30 min after injection
Excerpt: The inventors conducted three types of behavioral experiments that are regarded as classical for determining the antidepressant activity of a substance (Nestler E. J., Gould E., Manji H., Buncan M., Duman R. S., Greshenfeld H. K., Hen, R. et al. “Preclinical models: status of basic research in depression” Biol Psychiatry. 15, 503-528 (2002) (20) and Cryan, J. & Holmes, A. “The ascent of mouse: advances in modeling human depression and anxiety” Nat Rev Drug Discov. 4, 775-790 (2005) (21)). The effects of the propeptide of the present invention were compared with those of the saline solution in which it is dissolved and with those of fluoxetine, one of the most-used antidepressants in clinical practice. The mouse strain used is C57Black/J strain. TREK-1^−/− mice were also measured in these various tests.
In the next two tests, the propeptide of the present invention was administered by the IV route at a rate of 100 μl at 1 μM per animal.
C. Conditioned Motility Suppression Test (CMST) (see Daugé, V., Sebret, A., Beslot, F., Matsui, T., & Rogues B. “Behavioral profile of CCK2 receptor-deficient mice” Neuropsychopharmacol; 25: 690-698 (2001) (23).
The experiment consists of conditioning the mouse on day 1, and measuring the effects of the substances on day 2.
On day 1, each mouse is placed in a box where the floor is a metal grille connected to an electric stimulator. […]

[2] = test system: hippocampus progenitor cells; test: Neurogenesis (BrdU-positive cells) after 4 days of treatment; format: in vivo, mouse; conditions: fluoxetine 3 mg/kg
Excerpt: In contrast to many antidepressants now commonly used, the efficacy of action of the peptide of the invention is very rapid. […] 93: 3908-3913 (1996) (28) and with a considerable decrease in neurogenesis in the dentate gyrus (Gould, E., Tanapat, P., McEwen, B. S., Flugge, G., Fuchs, E. “Proliferation of granule cell precursors in the dentate gyrus of adult monkeys is diminished by stress” Proc Natl Acad Sci USA, 95: 3168-3171 (1998)) (29).
The experimental protocol is that described in the material and methods (Supplement) of the work of Santarelli et al., “Requirement of hippocampal neurogenesis for the behavioral effects of antidepressants” Science, 301: 805-809 (2003) (24) apart from the duration of treatment, which is four days.
The increase was evaluated using the one-factor ANOVA test followed by the post-hoc test.

[3] = biological target: T1, TREK-1 channel (Homo sapiens, UniProt O95069); test: Whole-cell patch clamp of TREK-1 channel activity in transfected COS-7 cells; format: cell-based; conditions: activation by 10 μM arachidonic acid alone (baseline 31 pA/pF)
T1 construct: expressed in transfected cells; host or cells: COS-7 cells (ATCC CRL-1651), DEAE-dextran transfection
T1 sequence (O95069 1-426): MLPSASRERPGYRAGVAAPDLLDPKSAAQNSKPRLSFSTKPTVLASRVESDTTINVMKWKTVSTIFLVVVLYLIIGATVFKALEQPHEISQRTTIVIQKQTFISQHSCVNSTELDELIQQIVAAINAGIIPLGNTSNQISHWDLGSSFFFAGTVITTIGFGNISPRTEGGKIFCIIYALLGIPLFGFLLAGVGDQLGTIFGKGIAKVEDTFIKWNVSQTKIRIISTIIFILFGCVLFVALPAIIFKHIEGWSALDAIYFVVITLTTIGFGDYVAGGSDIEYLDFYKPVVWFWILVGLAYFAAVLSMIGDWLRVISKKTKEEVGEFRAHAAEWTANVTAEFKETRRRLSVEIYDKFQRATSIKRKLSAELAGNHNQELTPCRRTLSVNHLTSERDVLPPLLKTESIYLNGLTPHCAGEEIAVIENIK
Description: All the experiments for measuring the effect of the propeptide were conducted on COS-7 cells (cell line derived from kidney fibroblasts of African green monkey Cercopithecus aethiops). These cells are sown at a density of 20 000 cells/dish with diameter of 35 mm, 24 hours before being transfected by the DEAE-dextran method with 1 μg of pIRES-EGFP-TREK-1 plasmid. Measurements of current were taken 48 to 72 hours after transfection.
Culture of the COS-7 cells. The COS-7 cells (ATCC reference: CRL-1651) are cultivated in DMEM medium (Gibco)/10% fetal calf serum (FCS, ICN), at 37° C. in the presence of 5% CO2.
Transfection using DEAE dextran. On day 1, the COS-7 cells are sown at 20 000 cells per 35-mm diameter dish containing 2 ml of culture medium. On day 2, the medium is removed and the cells are covered with 200 μl of PBS (Gibco) containing 1 μg of pIRES-EGFP-TREK-1 plasmid and 100 μg of DEAE-dextran (Sigma) then placed at 37° C./5% CO2. After incubation for 30 minutes, 2 ml of medium DMEM/10% NuSerum/80 μM chloroquin is added. After 3 hours, the medium is replaced with 2 ml of DMEM/10% FCS and the cells are incubated for 48 to 72 hours before being measured by electrophysiological methods.
Electrophysiological measurements: all the measurements are taken at room temperature, i.e. at 21-22° C. The cells that were transfected by the plasmid are detected from the fluorescence emitted by the EGFP after excitation at 480 nm.
The whole-cell patch clamp technique was used for measuring the activity of the TREK-1 channels. The equipment used is the RK 400 patch-clamp amplifier (Axon Instruments, U.S.A.). The patch pipettes with resistance of 1.3 to 8 MΩ are prepared from capillaries of borosilicate glass and are filled with a solution of 155 mM KCl, 3 mM MgCl2, 5 mM EGTA, 10 mM HEPES/KOH pH 7.2.
The cell culture medium is replaced with a solution of 150 mM NaCl, 5 mM KCl, 3 mM MgCl2, 1 mM CaCl2, 10 HEPES/NaOH pH 7.4 containing 10 mM tetraethyl ammonium chloride, 3 mM of 4-aminopyridin. The cells are perfused continuously with this solution. The rest potential of the membrane of the measured cell is fixed at −80 mV.
The variations in voltage are obtained either with a continuous ramp (from −100 to +50 mV) or by potential jumps of 10 mV (from −100 to +40 mV, 1.5 second per jump).
The data obtained were analyzed with the Pclamp software. The currents described in the appended FIG. 2B were obtained at 0 mV, the results expressed are the mean values±standard deviation. The IC50 value was obtained by plotting the experimental data with a sigmoidal function.
The activity of the channel is then measured by the patch-clamp technique in whole-cell configuration as described above.

current density at 0 mV [3]	SMILES	motility relative to untreated shocked mice [1]	neurogenesis relative to physiological saline [2]
	CNCCC(Oc1ccc(C(F)(F)F)cc1)c1ccccc1 (stereo not drawn) [fluoxetine, reference compound]	5 times greater	identical to that induced by the injection of physiological saline solution
130 pA/pF	CCCCC/C=C\C/C=C\C/C=C\C/C=C\CCCC(=O)O [arachidonic acid, reference compound]		
